Consider eight compounds from patent publication US10385024B2, “Compounds and methods for inhibiting NHE-mediated antiport in the treatment of disorders associated with fluid retention or salt overload and gastrointestinal tract disorders” (Ardelyx, Inc., priority 2012, dated 2019).

Experiment [1] addresses T1, Rat NHE-3 (Rattus norvegicus, UniProt P26433).
T1 construct: expressed in transfected cells; host or cells: Opossum kidney (OK) cells (ATCC), transfected by electroporation
The experiment is described as follows: Cell-based assay of NHE-3 activity (rat NHE-3 prompt inhibition). The settings on record: OK cells with rat NHE-3 gene, compound present during pH recovery; read-out: Rat NHE3 pIC50 (prompt) (converted). The protocol:
(§1) Rat or human NHE-3-mediated Na^+-dependent H^+ antiport was measured using a modification of the pH sensitive dye method originally reported by Paradiso (Proc. Natl. Acad. Sci. USA. (1984) 81(23): 7436-7440). Opossum kidney (OK) cells were obtained from the ATCC and propagated per their instructions. The rat NHE-3 gene (GenBank M85300) or the human NHE-3 gene (GenBank NM_004174.1) was introduced into OK cells via electroporation, and cells were seeded into 96 well plates and grown overnight. Medium was aspirated from the wells, cells were washed twice with NaCl-HEPES buffer (100 mM NaCl, 50 mM HEPES, 10 mM glucose, 5 mM KCl, 2 mM CaCl2, 1 mM MgCl2, pH 7.4), then incubated for 30 min at room temperature with NH4Cl-HEPES buffer (20 mM NH4Cl, 80 mM NaCl, 50 mM HEPES, 5 mM KCl, 2 mM CaCl2, 1 mM MgCl2, pH 7.4) containing 5 μM bis(acetoxymethyl) 3,3′-(3′,6′-bis(acetoxymethoxy)-5-((acetoxymethoxy)carbonyl)-3-oxo-3H-spiro[isobenzofuran-1,9′-xanthene]-2′,7′-diyl)dipropanoate (BCECF-AM). Cells were washed twice with Ammonium free, Na^+-free HEPES (100 mM choline, 50 mM HEPES, 10 mM glucose, 5 mM KCl, 2 mM CaCl2, 1 mM MgCl2, pH 7.4) and incubated in the same buffer for 10 minutes at room temperature to lower intracellular pH. […] Initial rates were plotted as the average 2 or more replicates, and pIC50 values were estimated using GraphPad Prism.

Experiment [2] has as its target T1, Rat NHE-3. The experiment is described as follows: Cell-based assay of NHE-3 activity (persistent inhibition, after washout). The settings on record: OK cells with rat NHE-3 gene, 60 min incubation, recovery initiated 40 min after compound washout; read-out: Rat NHE3 pIC50 (persistent) (converted). The procedure: The ability of compounds to inhibit Rat NHE-3-mediated Na^+-dependent H^+ antiport after application and washout was measured using a modification of the pH sensitive dye method described above in Example 74. Opossum kidney (OK) cells were obtained from the ATCC and propagated per their instructions. The rat NHE-3 gene was introduced into OK cells via electroporation, and cells were seeded into 96 well plates and grown overnight. Medium was aspirated from the wells, cells were washed twice with NaCl-HEPES buffer (100 mM NaCl, 50 mM HEPES, 10 mM glucose, 5 mM KCl, 2 mM CaCl2, 1 mM MgCl2, pH 7.4), then overlayed with NaCl-HEPES buffer containing 0-30 μM test compound. After a 60 min incubation, the test drug containing buffer was aspirated from the cells, cells were washed twice with NaCl-HEPES buffer without drug, then incubated for 30 min at room temperature with NH4Cl-HEPES buffer (20 mM NH4Cl, 80 mM NaCl, 50 mM HEPES, 5 mM KCl, 2 mM CaCl2, 1 mM MgCl2, pH 7.4) containing 5 μM BCECF-AM. Cells were washed twice with ammonium free, Na^+-free HEPES (100 mM choline, 50 mM HEPES, 10 mM glucose, 5 mM KCl, 2 mM CaCl2, 1 mM MgCl2, pH 7.4) and incubated in the same buffer for 10 minutes at room temperature to lower intracellular pH. […] Initial rates were plotted as the average 2 or more replicates, and pIC50 values were estimated using GraphPad Prism.

Experiment [3] deals with T2, human NHE-3 (Homo sapiens, UniProt P48764).
T2 construct: expressed in transfected cells; host or cells: Opossum kidney (OK) cells (ATCC), transfected by electroporation
T2 sequence (P48764 26-834): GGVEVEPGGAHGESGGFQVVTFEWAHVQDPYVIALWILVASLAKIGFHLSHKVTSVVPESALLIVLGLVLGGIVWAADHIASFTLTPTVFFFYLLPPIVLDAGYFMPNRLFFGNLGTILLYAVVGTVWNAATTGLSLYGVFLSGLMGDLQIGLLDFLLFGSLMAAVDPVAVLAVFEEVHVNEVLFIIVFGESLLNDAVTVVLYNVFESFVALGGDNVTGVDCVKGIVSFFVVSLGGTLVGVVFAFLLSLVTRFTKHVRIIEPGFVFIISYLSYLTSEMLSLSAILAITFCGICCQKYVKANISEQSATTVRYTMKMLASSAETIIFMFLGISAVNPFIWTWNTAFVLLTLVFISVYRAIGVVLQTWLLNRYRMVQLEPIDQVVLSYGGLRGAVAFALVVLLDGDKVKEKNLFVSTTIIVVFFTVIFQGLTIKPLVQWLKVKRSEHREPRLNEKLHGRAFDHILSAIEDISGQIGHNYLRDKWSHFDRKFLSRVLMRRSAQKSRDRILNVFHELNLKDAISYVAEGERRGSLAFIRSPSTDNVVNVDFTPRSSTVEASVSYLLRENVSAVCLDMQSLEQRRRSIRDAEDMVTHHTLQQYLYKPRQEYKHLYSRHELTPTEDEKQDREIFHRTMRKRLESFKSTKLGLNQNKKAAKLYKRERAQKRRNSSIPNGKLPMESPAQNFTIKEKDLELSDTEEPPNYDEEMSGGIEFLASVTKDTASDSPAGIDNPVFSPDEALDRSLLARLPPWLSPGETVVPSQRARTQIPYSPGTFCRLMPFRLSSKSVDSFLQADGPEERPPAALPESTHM
In words: Cell-based assay of NHE-3 activity (human NHE3 inhibition assay). The settings on record: OK cells with human NHE-3 gene, BCECF pH dye, 0-30 μM test compound; for IC50: read-out: Human NHE3 pIC50 (converted). The procedure:
as §1

T1 sequence (P26433 29-831): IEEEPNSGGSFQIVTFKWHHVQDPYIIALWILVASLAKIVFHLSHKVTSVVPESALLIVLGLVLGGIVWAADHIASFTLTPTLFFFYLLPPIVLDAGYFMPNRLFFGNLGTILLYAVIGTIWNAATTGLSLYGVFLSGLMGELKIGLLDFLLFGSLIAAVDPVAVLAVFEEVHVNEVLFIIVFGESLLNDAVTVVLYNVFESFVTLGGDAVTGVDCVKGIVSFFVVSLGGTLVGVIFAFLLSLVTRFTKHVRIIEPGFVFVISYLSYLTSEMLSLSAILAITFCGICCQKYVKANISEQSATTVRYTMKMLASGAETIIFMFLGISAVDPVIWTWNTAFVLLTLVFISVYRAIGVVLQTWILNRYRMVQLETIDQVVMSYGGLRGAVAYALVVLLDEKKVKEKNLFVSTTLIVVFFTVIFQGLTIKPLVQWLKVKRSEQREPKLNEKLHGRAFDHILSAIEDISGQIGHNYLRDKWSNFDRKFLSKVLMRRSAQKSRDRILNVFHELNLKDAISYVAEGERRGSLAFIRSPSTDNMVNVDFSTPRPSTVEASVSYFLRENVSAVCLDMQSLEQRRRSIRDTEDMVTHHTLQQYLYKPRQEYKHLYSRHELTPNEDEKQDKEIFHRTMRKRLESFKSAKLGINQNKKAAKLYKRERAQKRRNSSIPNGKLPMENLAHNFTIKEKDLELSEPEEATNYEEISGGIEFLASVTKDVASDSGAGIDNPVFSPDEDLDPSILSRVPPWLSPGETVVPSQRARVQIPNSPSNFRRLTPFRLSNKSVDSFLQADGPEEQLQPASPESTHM

For `CN1Cc2c(Cl)cc(Cl)cc2[C@H](c2cccc(S(=O)(=O)NCCOCCOCCNC(=O)CCC(CCC(=O)NCCOCCOCCNS(=O)(=O)c3cccc([C@@H]4CN(C)Cc5c(Cl)cc(Cl)cc54)c3)(CCC(=O)NCCOCCOCCNS(=O)(=O)c3cccc([C@@H]4CN(C)Cc5c(Cl)cc(Cl)cc54)c3)[N+](=O)[O-])c2)C1` [Example 1, N1,N7-bis(2-(2-(2-(3-((S)-6,8-dichloro-2-methyl-1,2,3,4-tetrahydroisoquinolin-4-yl)phenylsulfonamido)ethoxy)ethoxy)ethyl)-4-(3-(2-(2-(2-(3-((S)-6,8-dichloro-2-methyl-1,2,3,4-tetrahydroisoquinolin-4-yl)phenylsulfonamido)ethoxy)ethoxy)ethylamino)-3-oxopropyl)-4-nitroheptanediamide], the IC50 in experiment [1] is 0.1 to 10 µM; in experiment [2], less than 0.1 µM; in experiment [3], 0.1 to 10 µM.
On to `CN1Cc2c(Cl)cc(Cl)cc2[C@H](c2cccc(S(=O)(=O)NCCOCCOCCOCCNC(=O)CCC(CCC(=O)NCCOCCOCCOCCNS(=O)(=O)c3cccc([C@@H]4CN(C)Cc5c(Cl)cc(Cl)cc54)c3)(CCC(=O)NCCOCCOCCOCCNS(=O)(=O)c3cccc([C@@H]4CN(C)Cc5c(Cl)cc(Cl)cc54)c3)NC(=O)Nc3ccccc3)c2)C1` [Example 13, 4-(1-(3-((S)-6,8-dichloro-2-methyl-1,2,3,4-tetrahydroisoquinolin-4-yl)phenylsulfonamido)-13-oxo-3,6,9-trioxa-12-azapentadecan-15-yl)-N^1,N^7-bis(2-(2-(2-(2-(3-((S)-6,8-dichloro-2-methyl-1,2,3,4-tetrahydroisoquinolin-4-yl)phenylsulfonamido)ethoxy)ethoxy)ethoxy)ethyl)-4-(3-phenylureido)heptanediamide], for which the values for the IC50 in experiment [1], in experiment [2] and in experiment [3] were 0.1 to 10 µM, less than 0.1 µM and 0.1 to 10 µM, respectively.
In the case of `CCCCCCCCCCC(=O)NC(CCC(=O)NCCOCCOCCOCCNS(=O)(=O)c1cccc([C@@H]2CN(C)Cc3c(Cl)cc(Cl)cc32)c1)(CCC(=O)NCCOCCOCCOCCNS(=O)(=O)c1cccc([C@@H]2CN(C)Cc3c(Cl)cc(Cl)cc32)c1)CCC(=O)NCCOCCOCCOCCNS(=O)(=O)c1cccc([C@@H]2CN(C)Cc3c(Cl)cc(Cl)cc32)c1` [Example 15, 4-(1-(3-((S)-6,8-dichloro-2-methyl-1,2,3,4-tetrahydroisoquinolin-4-yl)phenylsulfonamido)-13-oxo-3,6,9-trioxa-12-azapentadecan-15-yl)-N^1,N^7-bis(2-(2-(2-(2-(3-((S)-6,8-dichloro-2-methyl-1,2,3,4-tetrahydroisoquinolin-4-yl)phenylsulfonamido)ethoxy)ethoxy)ethoxy)ethyl)-4-undecanamidoheptanediamide], the IC50 in experiment [1] is more than 10 µM; in experiment [2], 0.1 to 10 µM; in experiment [3] it was 0.1 to 10 µM.
Consider `CN1Cc2c(Cl)cc(Cl)cc2[C@H](c2cccc(S(=O)(=O)NCCOCCOCCOCCNC(=O)CCC(CCC(=O)NCCOCCOCCOCCNS(=O)(=O)c3cccc([C@@H]4CN(C)Cc5c(Cl)cc(Cl)cc54)c3)(CCC(=O)NCCOCCOCCOCCNS(=O)(=O)c3cccc([C@@H]4CN(C)Cc5c(Cl)cc(Cl)cc54)c3)NC(=O)c3ccc(-c4ccc(Cl)cc4)cc3)c2)C1` [Example 16, 4-(4′-chlorobiphenyl-4-ylcarboxamido)-4-(1-(3-((S)-6,8-dichloro-2-methyl-1,2,3,4-tetrahydroisoquinolin-4-yl)phenylsulfonamido)-13-oxo-3,6,9-trioxa-12-azapentadecan-15-yl)-N^1,N^7-bis(2-(2-(2-(2-(3-((S)-6,8-dichloro-2-methyl-1,2,3,4-tetrahydroisoquinolin-4-yl)phenylsulfonamido)ethoxy)ethoxy)ethoxy)ethyl)heptanediamide], for which the IC50 in experiment [1] is 0.1 to 10 µM; in experiment [2], 0.1 to 10 µM; in experiment [3] it was more than 10 µM.
As for `CN1Cc2c(Cl)cc(Cl)cc2[C@H](c2cccc(S(=O)(=O)NCCOCCOCCNC(=O)CCC(CCC(=O)NCCOCCOCCNS(=O)(=O)c3cccc([C@@H]4CN(C)Cc5c(Cl)cc(Cl)cc54)c3)(CCC(=O)NCCOCCOCCNS(=O)(=O)c3cccc([C@@H]4CN(C)Cc5c(Cl)cc(Cl)cc54)c3)NC(=O)c3ccc(-c4ccc(Cl)cc4)cc3)c2)C1` [Example 35], the “Human NHE3 pIC50” value in experiment [3] was “B (B NHE3 pIC50 5-7)”.
On the same count and under the same terms, the same measure for `CN1Cc2c(Cl)cc(Cl)cc2[C@H](c2cccc(S(=O)(=O)NCCOCCOCCNC(=O)CN(CCOCCOCCN(CC(=O)NCCOCCOCCNS(=O)(=O)c3cccc([C@@H]4CN(C)Cc5c(Cl)cc(Cl)cc54)c3)CC(=O)NCCOCCOCCNS(=O)(=O)c3cccc([C@@H]4CN(C)Cc5c(Cl)cc(Cl)cc54)c3)CC(=O)NCCOCCOCCNS(=O)(=O)c3cccc([C@@H]4CN(C)Cc5c(Cl)cc(Cl)cc54)c3)c2)C1` [Example 50]: “B (B NHE3 pIC50 5-7)”; for `CN1Cc2c(Cl)cc(Cl)cc2[C@H](c2cccc(S(=O)(=O)NCCOCCOCCNC(=O)NCCN(CCNC(=O)NCCOCCOCCNS(=O)(=O)c3cccc([C@@H]4CN(C)Cc5c(Cl)cc(Cl)cc54)c3)C(=O)NCCCCNC(=O)N(CCNC(=O)NCCOCCOCCNS(=O)(=O)c3cccc([C@@H]4CN(C)Cc5c(Cl)cc(Cl)cc54)c3)CCNC(=O)NCCOCCOCCNS(=O)(=O)c3cccc([C@@H]4CN(C)Cc5c(Cl)cc(Cl)cc54)c3)c2)C1` [Example 60]: “C (C NHE3 pIC50 > 7)”; for `CN1Cc2c(Cl)cc(Cl)cc2[C@H](c2cccc(S(=O)(=O)NCCOCCOCCN(C)C(=O)CCC(CCC(=O)N(C)CCOCCOCCNS(=O)(=O)c3cccc([C@@H]4CN(C)Cc5c(Cl)cc(Cl)cc54)c3)(CCC(=O)N(C)CCOCCOCCNS(=O)(=O)c3cccc([C@@H]4CN(C)Cc5c(Cl)cc(Cl)cc54)c3)N(C)C)c2)C1` [Example 71]: “C (C NHE3 pIC50 > 7)”.
